Measurements: patent US4167580A, “Compositions and method of use to treat arthritic disease with m-fluorobenzimidoylacetonitrile” (American Cyanamid Company, priority 1978, dated 1979)

How the values were obtained:
Erythema in Guinea Pigs = experiment: Ultraviolet induced erythema in guinea pigs, topical application; assay type: in vivo, Albino guinea pigs
Experimental: Albino guinea pigs were depilitated on their flanks, the evening before testing, with a standard mixture of barium sulfide and gum acacia. On the morning of the test at 0 hour they were restrained in a plastic container which allows exposure of 3 circular spots. They were then exposed to ultraviolet irradiation from a "Hanovia" Kromayer lamp, model 10, for 60 seconds. Immediately after exposure to ultraviolet light, the guinea pigs were treated by dissolving the test compound in ethyl alcohol at various concentrations and swabbing the UV exposed areas with the aid of a cottom tipped applicator stick. At one and four hours, the degree of erythema for each of the three sites was assessed according to the following scoring system: 0=no erythema, 0.5=incomplete circle or faint erythema and 1.0=complete circle of distinct erythema. Thus, the maximum score for each animal was 3.0.

[1] = system: Body Temperature of Pyretic Rats; experiment: Body temperature in yeast induced pyrexia; assay type: in vivo, Royal Hart, Wistar strain rats; settings: 250 mg./kg. by gavage 17 hours after yeast; measured 19 hours post challenge
Experimental: The effect of benzimidoylacetonitrile on body temperature in yeast induced pyrexia was determined by the following procedure. Groups of three Royal Hart, Wistar strain rats weighing 80±5 grams were injected subcutaneously in the nape of the neck with 0.6 ml. of a 40% suspension of dried brewers yeast in distilled water. […] At 19 hours post challenge the rectal temperature of each rat was measured with an electric thermometer. Each dose response experiment was replicated one or more times.

[2] = system: Carrageenin Induced Edema of the Rat Paw; experiment: Carrageenin induced edema of the rat paw (acute anti-inflammatory activity); assay type: in vivo, Royal Hart, Wistar strain rats; settings: 250 mg./kg. by gavage, 5 hours after drug (4 hours after carrageenin)
Experimental: In determining the acute anti-inflammatory activity of benzimidoylacetonitrile, Royal Hart, Wistar strain rats ranging in weight from 80 to 90 grams were used. The rats were fasted overnight prior to dosing but had free access to water. The compound was administered in aqueous suspension, by gavage, in a volume of 1.7 ml. per 50 grams of rat [corresponds by hydration volume used by Winter et al., Proc. Soc. […] The phlogistic agent used was carrageenin prepared as a sterile 1% suspension in 0.9% aqueous sodium chloride for routine testing. A volume of 0.05 ml. was injected through a 26 gauge needle into the planter tissue of the right hind paw. Measurements were made 5 hours after drug administration (4 hours after carrageenin challenge). Volumes of both the normal and carrageenin inflamed feet were determined. The difference between the two measurements is considered to be the increased edema due to the carrageenin administration.

[3] = system: Adjuvant Arthritis in Rats; experiment: Adjuvant induced arthritis in rats (chronic inflammation with joint destruction); assay type: in vivo, Royal Hart, Wistar strain rats; settings: for % Inhibition of Control Grade (secondary lesion), Day 14 / % Inhibition of Control Grade (secondary lesion), Day 21 / % Inhibition of Swelling (primary lesion), Day 14 / % Inhibition of Swelling (primary lesion), Day 21 / Dead/Treated At 21 Days / Mean Weight Gain, Day 14 / Mean Weight Gain, Day 21: once daily days 0-13
Text: Adjuvant induced experimental polyarthritis is a specific systemic disease of the rat which shares interesting similarities with rheumatoid arthritis. Specifically, the histology of the two diseases bears a remarkable resemblance as shown by C. M. Pearson et al., Am. J. Pathol. 42, 73 (1963). E. M. Glenn, Am. J. Vet. Res. 27 (116), 339 (1966) has classified adjuvant induced polyarthritis as a crippling and permanent deformity resulting from diffuse connective tissue involvement around certain susceptible joints in the rat. Zahiri et al., Can. Med. Ass. J. 101, 269 (1969) have shown that the fusiform swelling of the distal joints is associated with edema, congestion and synovitis including pannus formation, all of which precede the ultimate destruction of bone and cartilage. Furthermore, Zahiri et al. indicate that the cartilage destruction in the joint is due to an invasive pannus which originates in the marginal synovium and extends across the articular surface to erode it. […] See S. Wong et al., J. Pharm. & Exptl. Ther. 185, 127 (1973) and G. R. Bobalick et al., Agents & Actions 4, 364 (1974). In a similar manner, inhibition of the progress of arthritis in paws of rats treated with the compounds of this invention also lessens associated joint deterioration.
Groups of three Royal Hart, Wistar strain rats weighing 200±10 grams each were injected intradermally in the right hind paw with Freund's adjuvant (dried human tubercle bacilli in a mineral oil vehicle) at a dose of 2 mg./kg. of body weight. Test compounds were administered orally in a 1.5% staruh vehicle at various doses once daily on days 0 through 13 post challenge. Control rats were treated in a similar manner, but given only starch vehicle. On the 14th and 21st day post challenge the diameter of the injected paw (primary lesion) was measured by micrometer caliper. The volume of inflamed paws were estimated from these measurements and the results are expressed as percent inhibition of swelling as compared to controls. At the same time, the other inflamed sites, such as ears, paws and tail (secondary lesions) were observed and each rat was graded as to degree of inflammation and swelling present. The grading is based on a scale of 0 to 24, where 0 represents a complete absence of induced arthritic nodules and 24 represents the maximum degree of inflammation. The mean grade for each treated group is calculated and the effects of each compound are expressed as percent inhibition of the control grade. Table III records the results of these tests conducted with benzimidoylacetonitrile, m-fluorobenzimidoylacetonitrile and p-fluorobenzimidoylacetonitrile and known anti-inflammatory agents. The active compounds of the present invention suppress the progression of the arthritis and associated joint deterioration. Of particular interest is the low mortality observed with benzimidoylacetonitrile treated rats relative to either controls or rats treated with standard compounds.

[4] = 1% in ethyl alcohol, maximum score 3.0, ethyl alcohol control 2.5
[5] = 1% in ethyl alcohol, maximum score 3.0, ethyl alcohol control 3.0

## N#CCC(=N)c1ccccc1 [Benzimidoylacetonitrile, benzimidoylacetonitrile]
Erythema in Guinea Pigs; [4]
  Erythema Score (Avg.) 1 Hr.: 1.0
Erythema in Guinea Pigs; [5]
  Erythema Score (Avg.) 4 Hr.: 2.8
Erythema in Guinea Pigs; 2% in ethyl alcohol, maximum score 3.0, control 2.5
  Erythema Score (Avg.) 1 Hr.: 0.6
Erythema in Guinea Pigs; 2% in ethyl alcohol, maximum score 3.0, control 3.0
  Erythema Score (Avg.) 4 Hr.: 2.7
[1]
  Decrease In Body Temp.: 1.4 °C
[2]
  C/T Edema Ratio (edema of control animals/edema of treated animals): 2.2
[3]; 25 mg./kg. oral
  % Inhibition of Control Grade (secondary lesion), Day 14: 33%
  % Inhibition of Control Grade (secondary lesion), Day 21: 16%
  % Inhibition of Swelling (primary lesion), Day 14: 33%
  % Inhibition of Swelling (primary lesion), Day 21: 32%
  Dead/Treated At 21 Days: 1/9
  Mean Weight Gain, Day 14: 41 grams
  Mean Weight Gain, Day 21: 38 grams
[3]; 50 mg./kg. oral
  % Inhibition of Control Grade (secondary lesion), Day 14: 59%
  % Inhibition of Control Grade (secondary lesion), Day 21: 48%
  % Inhibition of Swelling (primary lesion), Day 14: 63%
  % Inhibition of Swelling (primary lesion), Day 21: 62%
  Dead/Treated At 21 Days: 1/24
  Mean Weight Gain, Day 14: 31 grams
  Mean Weight Gain, Day 21: 49 grams
[3]; 100 mg./kg. oral
  % Inhibition of Control Grade (secondary lesion), Day 14: 57%
  % Inhibition of Control Grade (secondary lesion), Day 21: 46%
  % Inhibition of Swelling (primary lesion), Day 14: 68%
  % Inhibition of Swelling (primary lesion), Day 21: 60%
  Dead/Treated At 21 Days: 0/15
  Mean Weight Gain, Day 14: 46 grams
  Mean Weight Gain, Day 21: 65 grams
[3]; greater suppression of primary and secondary lesions at the 21 day observation period
  duration of action (in words): longer duration of action than standards
[3]; relative to either controls or rats treated with standard compounds
  mortality (in words): low mortality

## N#CCC(=N)c1ccc(F)cc1 [p-Fluorobenzimidoylacetonitrile, p-fluorobenzimidoylacetonitrile]
[3]; 25 mg./kg. oral
  % Inhibition of Control Grade (secondary lesion), Day 14: 14%
  % Inhibition of Control Grade (secondary lesion), Day 21: 9%
  % Inhibition of Swelling (primary lesion), Day 14: 26%
  % Inhibition of Swelling (primary lesion), Day 21: 14%
  Dead/Treated At 21 Days: 2/18
  Mean Weight Gain, Day 14: 53 grams
  Mean Weight Gain, Day 21: 50 grams
[3]; 50 mg./kg. oral
  % Inhibition of Control Grade (secondary lesion), Day 14: 27%
  % Inhibition of Control Grade (secondary lesion), Day 21: 8%
  % Inhibition of Swelling (primary lesion), Day 14: 43%
  % Inhibition of Swelling (primary lesion), Day 21: 25%
  Dead/Treated At 21 Days: 4/36
  Mean Weight Gain, Day 14: 66 grams
  Mean Weight Gain, Day 21: 57 grams
[3]; 100 mg./kg. oral
  % Inhibition of Control Grade (secondary lesion), Day 14: 49%
  % Inhibition of Control Grade (secondary lesion), Day 21: 22%
  % Inhibition of Swelling (primary lesion), Day 14: 53%
  % Inhibition of Swelling (primary lesion), Day 21: 29%
  Dead/Treated At 21 Days: 1/18
  Mean Weight Gain, Day 14: 78 grams
  Mean Weight Gain, Day 21: 67 grams

## N#CCC(=N)c1cccc(F)c1 [m-Fluorobenzimidoylacetonitrile, m-fluorobenzimidoylacetonitrile]
[3]; 50 mg./kg. oral
  % Inhibition of Swelling (primary lesion), Day 14: 40%
  % Inhibition of Swelling (primary lesion), Day 21: 7%
  Dead/Treated At 21 Days: 1/18
  Mean Weight Gain, Day 14: 64 grams
  Mean Weight Gain, Day 21: 60 grams

## CC(=O)Oc1ccccc1C(=O)O [Aspirin]
Erythema in Guinea Pigs; [4]
  Erythema Score (Avg.) 1 Hr.: 1.9
Erythema in Guinea Pigs; [5]
  Erythema Score (Avg.) 4 Hr.: 2.8
[1]
  Decrease In Body Temp.: 1.5 °C
[2]
  C/T Edema Ratio (edema of control animals/edema of treated animals): 2.8
[3]; 50 mg./kg. oral
  % Inhibition of Control Grade (secondary lesion), Day 14: 12%
  % Inhibition of Control Grade (secondary lesion), Day 21: 9%
  % Inhibition of Swelling (primary lesion), Day 14: 23%
  % Inhibition of Swelling (primary lesion), Day 21: 3%
  Dead/Treated At 21 Days: 2/21
  Mean Weight Gain, Day 14: 56 grams
  Mean Weight Gain, Day 21: 44 grams
[3]; 100 mg./kg. oral
  % Inhibition of Control Grade (secondary lesion), Day 14: 19%
  % Inhibition of Control Grade (secondary lesion), Day 21: 8%
  % Inhibition of Swelling (primary lesion), Day 14: 36%
  % Inhibition of Swelling (primary lesion), Day 21: 13%
  Dead/Treated At 21 Days: 18/63
  Mean Weight Gain, Day 14: 48 grams
  Mean Weight Gain, Day 21: 53 grams
[3]; 200 mg./kg. oral
  % Inhibition of Control Grade (secondary lesion), Day 14: 26%
  % Inhibition of Control Grade (secondary lesion), Day 21: 17%
  % Inhibition of Swelling (primary lesion), Day 14: 48%
  % Inhibition of Swelling (primary lesion), Day 21: 27%
  Dead/Treated At 21 Days: 10/66
  Mean Weight Gain, Day 14: 40 grams
  Mean Weight Gain, Day 21: 44 grams
[3]; 400 mg./kg. oral
  % Inhibition of Control Grade (secondary lesion), Day 14: 58%
  % Inhibition of Control Grade (secondary lesion), Day 21: 45%
  % Inhibition of Swelling (primary lesion), Day 14: 73%
  % Inhibition of Swelling (primary lesion), Day 21: 48%
  Dead/Treated At 21 Days: 19/57
  Mean Weight Gain, Day 14: 41 grams
  Mean Weight Gain, Day 21: 55 grams

## CCCCC1C(=O)N(c2ccccc2)N(c2ccccc2)C1=O [Phenylbutazone]
Erythema in Guinea Pigs; [4]
  Erythema Score (Avg.) 1 Hr.: 0.5
Erythema in Guinea Pigs; [5]
  Erythema Score (Avg.) 4 Hr.: 2.4
[1]
  Decrease In Body Temp.: 1.5 °C
[2]
  C/T Edema Ratio (edema of control animals/edema of treated animals): 2.3
[3]; 18.8 mg./kg. oral
  % Inhibition of Control Grade (secondary lesion), Day 14: 4%
  % Inhibition of Control Grade (secondary lesion), Day 21: 8%
  % Inhibition of Swelling (primary lesion), Day 14: 31%
  % Inhibition of Swelling (primary lesion), Day 21: 7%
  Dead/Treated At 21 Days: 2/21
  Mean Weight Gain, Day 14: 50 grams
  Mean Weight Gain, Day 21: 45 grams
[3]; 37.5 mg./kg. oral
  % Inhibition of Control Grade (secondary lesion), Day 14: 18%
  % Inhibition of Control Grade (secondary lesion), Day 21: 13%
  % Inhibition of Swelling (primary lesion), Day 14: 56%
  % Inhibition of Swelling (primary lesion), Day 21: 14%
  Dead/Treated At 21 Days: 5/39
  Mean Weight Gain, Day 14: 53 grams
  Mean Weight Gain, Day 21: 53 grams
[3]; 75 mg./kg. oral
  % Inhibition of Control Grade (secondary lesion), Day 14: 27%
  % Inhibition of Control Grade (secondary lesion), Day 21: 15%
  % Inhibition of Swelling (primary lesion), Day 14: 62%
  % Inhibition of Swelling (primary lesion), Day 21: 28%
  Dead/Treated At 21 Days: 2/39
  Mean Weight Gain, Day 14: 51 grams
  Mean Weight Gain, Day 21: 50 grams
[3]; 150 mg./kg. oral
  % Inhibition of Control Grade (secondary lesion), Day 14: 54%
  % Inhibition of Control Grade (secondary lesion), Day 21: 31%
  % Inhibition of Swelling (primary lesion), Day 14: 75%
  % Inhibition of Swelling (primary lesion), Day 21: 44%
  Dead/Treated At 21 Days: 2/27
  Mean Weight Gain, Day 14: 40 grams
  Mean Weight Gain, Day 21: 50 grams
